Measurements from the NIST ThermoML archive (doi:10.1021/je900689m).

Tests used:
[1] = 101 kPa, Liquid; for viscosity: Capillary tube (Ostwald / Ubbelohde) method
[2] = xn = mol fraction of the nth substance listed; conditions: 101 kPa, Liquid; for viscosity: Capillary tube (Ostwald / Ubbelohde) method

CC(C)Cc1ccccc1 [(2-methylpropyl)benzene]
[1]
Conditions | mass density [kg/m3] | speed of sound [m/s] | viscosity [mPa·s]
303.15 K | 844.4 | 1268 | 0.905
308.15 K | 841.1 | 1252 | 0.848
313.15 K | 837.6 | 1236 | 0.784

CC(C)Cc1ccccc1 [(2-methylpropyl)benzene] + CCOC=O
[2]
Conditions | mass density, 303.15 K [kg/m3] | mass density, 308.15 K [kg/m3] | mass density, 313.15 K [kg/m3] | speed of sound, 303.15 K [m/s] | speed of sound, 308.15 K [m/s] | speed of sound, 313.15 K [m/s] | viscosity, 303.15 K [mPa·s] | viscosity, 308.15 K [mPa·s] | viscosity, 313.15 K [mPa·s]
x2 = 0 | 844.4 | 841.1 | 837.6 | 1268 | 1252 | 1236 | 0.905 | 0.848 | 0.784
x2 = 0.1772 | 849.5 | 845.8 | 842.1 | 1248 | 1228 | 1208 | 0.788 | 0.726 | 0.666
x2 = 0.3217 | 854.9 | 851 | 847 | 1224 | 1204 | 1184 | 0.699 | 0.641 | 0.591
x2 = 0.4514 | 860.8 | 856.8 | 852.6 | 1200 | 1180 | 1160 | 0.625 | 0.573 | 0.529
x2 = 0.5631 | 866.8 | 862.7 | 858.3 | 1180 | 1160 | 1140 | 0.569 | 0.522 | 0.48
x2 = 0.6604 | 873.3 | 868.8 | 864.3 | 1164 | 1144 | 1124 | 0.52 | 0.479 | 0.442
x2 = 0.7444 | 879.7 | 875 | 870.3 | 1148 | 1128 | 1108 | 0.481 | 0.445 | 0.413
x2 = 0.8191 | 886.3 | 881.5 | 876.6 | 1132 | 1112 | 1092 | 0.45 | 0.415 | 0.384
x2 = 0.8852 | 893.1 | 888 | 883 | 1120 | 1100 | 1080 | 0.418 | 0.388 | 0.362
x2 = 0.9461 | 900.5 | 895.3 | 890 | 1104 | 1084 | 1064 | 0.394 | 0.369 | 0.347

c1ccccc1 [benzene]
[1]
Conditions | mass density [kg/m3] | speed of sound [m/s] | viscosity [mPa·s]
303.15 K | 867.6 | 1276 | 0.569
308.15 K | 863.2 | 1252 | 0.534
313.15 K | 858.9 | 1228 | 0.497

c1ccccc1 [benzene] + CCOC=O
[2], x2 = 0
Conditions | mass density [kg/m3] | speed of sound [m/s] | viscosity [mPa·s]
303.15 K | 867.6 | 1276 | 0.569
308.15 K | 863.2 | 1252 | 0.534
313.15 K | 858.9 | 1228 | 0.497

CCCCc1ccccc1 [butylbenzene]
[1]
Conditions | mass density [kg/m3] | speed of sound [m/s] | viscosity [mPa·s]
303.15 K | 851.3 | 1308 | 0.901
308.15 K | 848 | 1292 | 0.844
313.15 K | 844.6 | 1276 | 0.787

CCCCc1ccccc1 [butylbenzene] + CCOC=O
[2]
Conditions | mass density, 303.15 K [kg/m3] | mass density, 308.15 K [kg/m3] | mass density, 313.15 K [kg/m3] | speed of sound, 303.15 K [m/s] | speed of sound, 308.15 K [m/s] | speed of sound, 313.15 K [m/s] | viscosity, 303.15 K [mPa·s] | viscosity, 308.15 K [mPa·s] | viscosity, 313.15 K [mPa·s]
x2 = 0 | 851.3 | 848 | 844.6 | 1308 | 1292 | 1276 | 0.901 | 0.844 | 0.787
x2 = 0.1738 | 855.4 | 851.9 | 848.4 | 1284 | 1264 | 1244 | 0.782 | 0.713 | 0.65
x2 = 0.3241 | 860.3 | 856.6 | 852.9 | 1252 | 1232 | 1212 | 0.692 | 0.627 | 0.571
x2 = 0.4533 | 865.4 | 861.5 | 857.5 | 1220 | 1200 | 1180 | 0.625 | 0.569 | 0.518
x2 = 0.563 | 870.7 | 866.6 | 862.4 | 1196 | 1176 | 1156 | 0.571 | 0.521 | 0.476
x2 = 0.6587 | 876.3 | 872 | 867.6 | 1176 | 1156 | 1136 | 0.525 | 0.48 | 0.44
x2 = 0.744 | 882.2 | 877.6 | 873.1 | 1156 | 1136 | 1116 | 0.482 | 0.443 | 0.407
x2 = 0.8189 | 888.4 | 883.6 | 878.8 | 1140 | 1120 | 1100 | 0.451 | 0.412 | 0.381
x2 = 0.8855 | 894.5 | 889.6 | 884.6 | 1124 | 1104 | 1084 | 0.419 | 0.385 | 0.355
x2 = 0.9459 | 901.2 | 896 | 890.8 | 1108 | 1088 | 1068 | 0.398 | 0.366 | 0.336

CCOC=O [ethyl methanoate]
[1]
Conditions | mass density [kg/m3] | speed of sound [m/s] | viscosity [mPa·s]
303.15 K | 907.8 | 1092 | 0.373
308.15 K | 902.6 | 1072 | 0.345
313.15 K | 897.1 | 1052 | 0.324

CCOC=O [ethyl methanoate] + CC(C)Cc1ccccc1
[2], x1 = 1
Conditions | mass density [kg/m3] | speed of sound [m/s] | viscosity [mPa·s]
303.15 K | 907.8 | 1092 | 0.373
308.15 K | 902.6 | 1072 | 0.345
313.15 K | 897.1 | 1052 | 0.324

CCOC=O [ethyl methanoate] + CC(C)c1ccccc1
[2], x1 = 1
Conditions | mass density [kg/m3] | speed of sound [m/s] | viscosity [mPa·s]
303.15 K | 907.8 | 1092 | 0.373
308.15 K | 902.6 | 1072 | 0.345
313.15 K | 897.1 | 1052 | 0.324

CCOC=O [ethyl methanoate] + CCCCc1ccccc1
[2], x1 = 1
Conditions | mass density [kg/m3] | speed of sound [m/s] | viscosity [mPa·s]
303.15 K | 907.8 | 1092 | 0.373
308.15 K | 902.6 | 1072 | 0.345
313.15 K | 897.1 | 1052 | 0.324

CCOC=O [ethyl methanoate] + c1ccccc1
[2]
Conditions | mass density, 303.15 K [kg/m3] | mass density, 308.15 K [kg/m3] | mass density, 313.15 K [kg/m3] | speed of sound, 303.15 K [m/s] | speed of sound, 308.15 K [m/s] | speed of sound, 313.15 K [m/s] | viscosity, 303.15 K [mPa·s] | viscosity, 308.15 K [mPa·s] | viscosity, 313.15 K [mPa·s]
x1 = 0.1089 | 870.4 | 865.8 | 861.3 | 1252 | 1228 | 1208 | 0.529 | 0.499 | 0.468
x1 = 0.2169 | 873.5 | 868.9 | 864.3 | 1228 | 1208 | 1188 | 0.493 | 0.46 | 0.428
x1 = 0.3189 | 876.9 | 872.2 | 867.5 | 1208 | 1188 | 1168 | 0.462 | 0.431 | 0.401
x1 = 0.4239 | 880.8 | 876 | 871.2 | 1188 | 1168 | 1148 | 0.439 | 0.408 | 0.38
x1 = 0.5253 | 884.9 | 880.1 | 875.2 | 1172 | 1152 | 1132 | 0.422 | 0.392 | 0.364
x1 = 0.6233 | 889.1 | 884.2 | 879.2 | 1156 | 1136 | 1116 | 0.41 | 0.38 | 0.354
x1 = 0.7211 | 893.6 | 888.6 | 883.4 | 1140 | 1120 | 1100 | 0.399 | 0.37 | 0.348
x1 = 0.8148 | 898.1 | 893 | 887.7 | 1124 | 1104 | 1084 | 0.389 | 0.364 | 0.338
x1 = 0.9088 | 903 | 897.8 | 892.3 | 1108 | 1088 | 1068 | 0.379 | 0.355 | 0.329
x1 = 1 | 907.8 | 902.6 | 897.1 | 1092 | 1072 | 1052 | 0.373 | 0.345 | 0.324

CC(C)c1ccccc1 [isopropylbenzene]
[1]
Conditions | mass density [kg/m3] | speed of sound [m/s] | viscosity [mPa·s]
303.15 K | 852.7 | 1280 | 0.69
308.15 K | 849 | 1264 | 0.651
313.15 K | 845.4 | 1248 | 0.611

CC(C)c1ccccc1 [isopropylbenzene] + CCOC=O
[2]
Conditions | mass density, 303.15 K [kg/m3] | mass density, 308.15 K [kg/m3] | mass density, 313.15 K [kg/m3] | speed of sound, 303.15 K [m/s] | speed of sound, 308.15 K [m/s] | speed of sound, 313.15 K [m/s] | viscosity, 303.15 K [mPa·s] | viscosity, 308.15 K [mPa·s] | viscosity, 313.15 K [mPa·s]
x2 = 0 | 852.7 | 849 | 845.4 | 1280 | 1264 | 1248 | 0.69 | 0.651 | 0.611
x2 = 0.1603 | 857 | 853.2 | 849.4 | 1252 | 1240 | 1228 | 0.63 | 0.585 | 0.544
x2 = 0.3007 | 861.7 | 857.7 | 853.7 | 1228 | 1216 | 1200 | 0.577 | 0.537 | 0.499
x2 = 0.4234 | 866.5 | 862.4 | 858.3 | 1204 | 1192 | 1176 | 0.534 | 0.497 | 0.46
x2 = 0.5352 | 871.9 | 867.7 | 863.3 | 1180 | 1168 | 1152 | 0.5 | 0.463 | 0.431
x2 = 0.633 | 877.4 | 872.9 | 868.4 | 1160 | 1148 | 1132 | 0.468 | 0.437 | 0.409
x2 = 0.7203 | 882.8 | 878.2 | 873.7 | 1144 | 1132 | 1116 | 0.444 | 0.414 | 0.386
x2 = 0.801 | 888.9 | 884.2 | 879.3 | 1128 | 1116 | 1100 | 0.424 | 0.394 | 0.367
x2 = 0.8724 | 894.8 | 890 | 884.9 | 1116 | 1100 | 1084 | 0.407 | 0.382 | 0.359
x2 = 0.9399 | 901.3 | 896.4 | 891.1 | 1104 | 1088 | 1068 | 0.39 | 0.362 | 0.34
